What follows are compounds tested against T1, recombinant human pancreatic GLK (Homo sapiens, UniProt P35557) (assay: biochemical).
T1 sequence (P35557 1-465): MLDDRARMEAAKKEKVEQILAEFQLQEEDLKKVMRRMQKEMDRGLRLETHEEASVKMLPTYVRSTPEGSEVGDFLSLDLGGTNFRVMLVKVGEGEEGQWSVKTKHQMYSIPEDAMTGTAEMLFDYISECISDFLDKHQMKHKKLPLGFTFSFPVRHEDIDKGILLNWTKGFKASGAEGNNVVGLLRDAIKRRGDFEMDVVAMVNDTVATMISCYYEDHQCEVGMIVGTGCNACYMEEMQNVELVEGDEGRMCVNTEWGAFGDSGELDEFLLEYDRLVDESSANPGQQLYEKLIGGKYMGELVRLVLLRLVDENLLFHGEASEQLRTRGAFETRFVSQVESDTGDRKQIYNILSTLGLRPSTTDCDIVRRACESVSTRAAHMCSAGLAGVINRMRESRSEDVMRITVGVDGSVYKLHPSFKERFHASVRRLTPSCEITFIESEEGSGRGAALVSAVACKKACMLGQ

SMILES | EC50 [nM]
Cc1c(F)cccc1-n1ncc2c(O[C@@H](COCCO)C(=O)Nc3ccc(C#N)cn3)ncnc21 [Example 168, (2S)—N-(5-cyanopyridin-2-yl)-2-[1-(3-fluoro-2-methylphenyl)pyrazolo[4,5-e]pyrimidin-4-yl]oxy-3-(2-hydroxyethoxy)propanamide] | 3900
CC(C)OCC(Oc1ncnc2c1cnn2-c1ccccc1Cl)C(=O)Nc1ncns1 (stereo not shown) [Example 114, 2-[1-(2-chlorophenyl)pyrazolo[4,5-e]pyrimidin-4-yl]oxy-3-isopropoxy-N-(1,2,4-thiadiazol-5-yl)propanamide] | 2100
Cc1cnc(NC(=O)[C@H](COC(C)C)Oc2ncnc3c2cnn3-c2ccccc2Cl)s1 [Example 111a, (2S)-2-[1-(2-chlorophenyl)pyrazolo[4,5-e]pyrimidin-4-yl]oxy-3-isopropoxy-N-(5-methylthiazol-2-yl)propanamide] | 210
Cc1ccc(NC(=O)[C@H](CN2CC(O)C2)Oc2ncnc3c2cnn3-c2ccccc2Cl)nc1 [Example 205, (2S)-2-(1-(2-chlorophenyl)-1H-pyrazolo[3,4-d]pyrimidin-4-yloxy)-3-(3-hydroxyazetidin-1-yl)-N-(5-methylpyridin-2-yl)propanamide] | 240
Cc1ccc(NC(=O)[C@H](CCN(C)C)Oc2ncnc3c2cnn3-c2ccccc2Cl)nc1 [Example 47, (2S)-2-{[1-(2-chlorophenyl)-1H-pyrazolo[3,4-d]pyrimidin-4-yl]oxy}-4-(dimethylamino)-N-(5-methylpyridin-2-yl)butanamide] | 1000
CCOC[C@H](Oc1ncnc2c1cnn2-c1ncccc1Cl)C(=O)Nc1ccc(Cl)cn1 [Example 127g, (2S)—N-(5-chloro-2-pyridyl)-2-[1-(3-chloro-2-pyridyl)pyrazolo[4,5-e]pyrimidin-4-yl]oxy-3-ethoxy-propanamide] | 300
Cc1cnc(NC(=O)[C@H](CN2CC(O)C2)Oc2ncnc3c2cnn3-c2ccccc2Cl)cn1 [Example 219, (2S)-2-[1-(2-chlorophenyl)pyrazolo[4,5-e]pyrimidin-4-yl]oxy-3-(3-hydroxyazetidin-1-yl)-N-(5-methylpyrazin-2-yl)propanamide] | 280
O=C(Nc1ccccn1)[C@H](CN1CC(O)C1)Oc1ncnc2c1cnn2-c1c(Cl)cccc1Cl [Example 233, (2S)-2-[1-(2,6-dichlorophenyl)pyrazolo[3,4-d]pyrimidin-4-yl]oxy-3-(3-hydroxyazetidin-1-yl)-N-(2-pyridyl)propanamide] | 210
Cc1ccc(NC(=O)[C@H](COCCO)Oc2ncnc3c2cnn3-c2ccccc2Cl)nc1 [Example 194, (2S)-2-(1-(2-chlorophenyl)-1H-pyrazolo[3,4-d]pyrimidin-4-yloxy)-3-(2-hydroxyethoxy)-N-(5-methylpyridin-2-yl)propanamide] | 580
CC(C)OC[C@H](Oc1ncnc2c1cnn2-c1ccccc1Cl)C(=O)Nc1ccc(C#N)cn1 [Example 113a, (2S)-2-[1-(2-chlorophenyl)pyrazolo[4,5-e]pyrimidin-4-yl]oxy-N-(5-cyano-2-pyridyl)-3-isopropoxy-propanamide] | 300
Cc1cnc(NC(=O)[C@H](CO[C@H](C)CO)Oc2ncnc3c2cnn3-c2ccccc2Cl)cn1 [Example 247, (2S)-2-[1-(2-chlorophenyl)pyrazolo[3,4-d]pyrimidin-4-yl]oxy-3-[(1R)-2-hydroxy-1-methyl-ethoxy]-N-(5-methylpyrazin-2-yl)propanamide] | 590
O=C(Nc1ccc(Cl)cn1)[C@H](CN1CC(O)C1)Oc1ncnc2c1cnn2-c1ncccc1Cl [Example 165, (2S)—N-(5-chloropyridin-2-yl)-2-[1-(3-chloropyridin-2-yl)pyrazolo[4,5-e]pyrimidin-4-yl]oxy-3-(3-hydroxyazetidin-1-yl)propanamide] | 370
Cc1ccc(NC(=O)[C@H](COC(C)C)Oc2ncnc3c2cnn3-c2ccccc2C#N)nc1 [Example 97a, (2S)-2-[1-(2-cyanophenyl)pyrazolo[4,5-e]pyrimidin-4-yl]oxy-N-(5-methylpyridin-2-yl)-3-propan-2-yloxypropanamide] | 460

— patent US8143263B2, “Therapeutic agents” (Astrazeneca AB, priority 2008, dated 2012)
